Laboratory results as given in PubChem BioAssay (NCI).
“And” between values parts separate entries of the source, which are not always exact repeats. Equal values may be shown once.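 Cultured in 96-well plates, cells were exposed to test compound for 48 hours across five concentrations. At the GI50, growth is halved. TGI denotes the concentration required for complete inhibition of growth.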

Tests used:
Assay in all cases: inhibition of tumour cell growth, NCI panel, 48 h
HL-60(TB) leukemia = system: HL-60(TB) leukemia
KM20L2 colon = system: KM20L2 colon
M19-MEL melanoma = system: M19-MEL melanoma
NCI-H23 lung = system: NCI-H23 lung
NCI-H460 lung = system: NCI-H460 lung
SF-539 CNS = system: SF-539 CNS
SK-MEL-2 melanoma = system: SK-MEL-2 melanoma
SR leukemia = system: SR leukemia
SW-620 colon = system: SW-620 colon
HS 578T breast = system: HS 578T breast

Structure (SMILES)	TGI (HL-60(TB) leukemia)	TGI (KM20L2 colon) [µM]	TGI (M19-MEL melanoma) [µM]	TGI (NCI-H23 lung)	TGI (NCI-H460 lung)	TGI (SF-539 CNS)	TGI (SK-MEL-2 melanoma)	TGI (SR leukemia)	TGI (SW-620 colon)	TGI (HS 578T breast)	GI50 (HL-60(TB) leukemia) [nM]	GI50 (HS 578T breast) [µM]	GI50 (NCI-H23 lung) [µM]	GI50 (NCI-H460 lung) [µM]	GI50 (SF-539 CNS) [µM]	GI50 (SK-MEL-2 melanoma) [µM]	GI50 (SR leukemia) [µM]	GI50 (SW-620 colon) [µM]	GI50 (KM20L2 colon) [µM]
N#CC1(CCCCl)CCCCC1	> 100 µM	> 100	> 100	> 100 µM	> 100 µM	> 100 µM	> 100 µM	> 100 µM	> 100 µM	–	–	–	–	–	–	–	–	–	–
CC(C)CCCC(C)C1CCC2C3CC([N+](=O)[O-])=C4CC(O)CCC4(C)C3CCC12C (stereo unspecified)	60.6 µM	34.7	73.3	48.6 µM	–	28.9 µM	29 µM	34.1 µM	59.1 µM	–	–	–	–	–	–	–	–	–	–
CCC12C=C(C(=O)OC)N3c4ccccc4C4CCN(CCC1)C2C43 (stereo unspecified)	> 100 µM	56.7	> 100	> 100 µM	–	> 100 µM	> 100 µM	–	> 100 µM	–	–	–	–	–	–	–	–	–	–
N=C(N)SCc1ccc(Cl)c2ccccc12 (tested in a mixture with another compound)	12.6 µM and 17.8 µM	–	–	29 µM and 29.2 µM	22.4 µM and 21 µM	23.1 µM and 20.4 µM	21.7 µM and 25.1 µM	22.8 µM and 8.03 µM	28.5 µM and 27.6 µM	48.1 µM and 53 µM	–	–	–	–	–	–	–	–	–
Nc1cc(C(F)(F)F)c(-c2nc(N3CCOCC3)nc(N3CCOCC3)n2)cn1	> 84.1 µM	–	–	> 100 µM	> 53.3 µM	3.54 µM	8.68 µM	28.4 µM	> 100 µM	1.46 µM	381	0.231	0.446	0.299	0.539	0.618	1.04	0.921	–
Cc1ccccc1NC(=O)CC(=O)NNCC(=O)Nc1nnc(-c2ccccc2)s1	85.3 µM	> 100	> 100	> 100 µM	> 100 µM	> 100 µM	> 100 µM	> 100 µM	> 100 µM	–	–	–	–	–	–	–	–	–	–
O=C1NC(c2ccccc2Cl)Nc2ccccc21 (stereo unspecified)	16.4 µM	–	–	> 100 µM	> 100 µM	32.6 µM	48.7 µM	> 100 µM	> 30.1 µM	54.7 µM	–	–	–	–	–	–	–	–	–
CC(C)(C)c1ccc(OCCOCCOc2ccc(C(C)(C)C)cc2S(N)(=O)=O)c(S(N)(=O)=O)c1	> 100 µM	–	> 100	> 100 µM	> 100 µM	> 100 µM	> 100 µM	–	> 100 µM	–	–	–	–	–	–	–	–	–	–
CC(=O)NC(CCCNC(=O)OCc1ccccc1)C(=O)NCc1ccccc1 (stereo unspecified)	–	> 100	> 100	> 100 µM	> 100 µM	> 100 µM	> 100 µM	–	> 100 µM	–	–	–	–	–	–	–	–	–	–
O=C(CC1(O)C(=O)Nc2c(Cl)ccc(Cl)c21)c1ccc(Cl)cc1 (stereo unspecified)	–	> 100	33.3	46.5 µM	61.9 µM	50.6 µM	86.4 µM	–	> 100 µM	–	–	–	–	–	–	–	–	–	–
COc1ccc(-n2c(=O)c3ccccc3n(Cc3ccc(C(=O)NO)cc3)c2=O)cc1	> 100 µM	–	–	4.29 µM	12.9 µM	5.25 µM	7.13 µM	> 100 µM	6.97 µM	24.2 µM	3510	2.67	1.78	2.58	1.93	2.31	2.86	2.13	–
O=[N+]([O-])c1ccc(/C=C/c2ccc(/C=C/c3ccc([N+](=O)[O-])cc3[N+](=O)[O-])cc2)c([N+](=O)[O-])c1	> 100 µM	> 100	–	> 100 µM	> 100 µM	> 100 µM	> 100 µM	–	> 100 µM	–	–	–	–	–	–	–	–	–	–
CN(C)CCNC(=O)c1cccc2c1nc(-c1cccnc1)c1ccccc12	28.8 µM	–	18.5	15.9 µM	12.5 µM	10.7 µM	22.8 µM	–	25.3 µM	–	–	–	–	–	–	–	–	–	–
C#CCCCCCC(=O)N[C@H]1C=C[C@@H]2/C=C(C)/C=C/[C@@H](C)[C@H]([C@H](C)[C@H](O)[C@@H](C)NC(C)=O)OC(=O)/C=C/C=C(C)\C=C\[C@]2(C)C1	9.31 µM	–	–	> 40 µM	> 40 µM	32.3 µM	> 40 µM	9.53 µM	> 40 µM	> 40 µM	33.5	0.00422	0.0942	< 0.004	< 0.004	4.87	< 0.004	< 0.004	–
C/C(=C\c1csc(C)n1)[C@@H]1C[C@@H]2O[C@]2(C)CCC[C@H](C)[C@H](O)[C@@H](C)C(=O)C(C)(C)[C@@H](O)CC(=O)N1	0.000163 µM	–	–	0.000412 µM	0.00036 µM	0.000369 µM	< 1e-05 µM	0.00332 µM	0.00042 µM	0.000226 µM	0.083	8.61e-05	0.00019	0.000109	0.000165	< 1e-05	0.00102	0.00016	–
ON1CCc2c([nH]c3ccccc23)C1c1ccc(Cl)cc1 (stereo unspecified)	79.5 µM	77.5	> 100	86.9 µM	–	> 100 µM	64.5 µM	> 100 µM	> 100 µM	–	–	–	–	–	–	–	–	–	–
CC[C@]12C=CCN3CC[C@@]4(c5ccc(OC)cc5N(C)[C@H]4[C@@](O)(C(=O)OC)[C@@H]1OC(=O)CCCN1CCN(CCCC(=O)O[C@@H]4[C@]5(CC)C=CCN6CC[C@@]7(c8ccc(OC)cc8N(C)[C@H]7[C@@]4(O)C(=O)OC)[C@@H]65)CC1)[C@@H]32	1.85 µM	–	–	3.13 µM	2.5 µM	2.7 µM	3.59 µM	0.738 µM	3.21 µM	3.38 µM	464	1.39	1.59	1.11	1.38	1.88	0.252	1.6	–

Structure (SMILES)	TGI (HL-60(TB) leukemia)	TGI (KM20L2 colon) [µM]	TGI (M19-MEL melanoma) [µM]	TGI (NCI-H23 lung)	TGI (NCI-H460 lung)	TGI (SF-539 CNS)	TGI (SK-MEL-2 melanoma)	TGI (SR leukemia)	TGI (SW-620 colon)	TGI (HS 578T breast)	GI50 (HL-60(TB) leukemia) [nM]	GI50 (HS 578T breast) [µM]	GI50 (NCI-H23 lung) [µM]	GI50 (NCI-H460 lung) [µM]	GI50 (SF-539 CNS) [µM]	GI50 (SK-MEL-2 melanoma) [µM]	GI50 (SR leukemia) [µM]	GI50 (SW-620 colon) [µM]	GI50 (KM20L2 colon) [µM]
COc1cc2c3c(n(CCCN)c(=O)c2cc1OC)-c1ccc(N)cc1C3=O	4.91 µM	–	–	9.75 µM	16.8 µM	1.61 µM	29.8 µM	1.45 µM	11.7 µM	12.5 µM	461	2.02	1.62	4.52	0.302	7.77	0.152	0.607	–
O=C(O)CSc1cc(NS(=O)(=O)c2ccc(Br)cc2)c2ccccc2c1O	> 26.8 µM	–	–	38 µM	37.4 µM	32.8 µM	28.6 µM	> 68.1 µM	33.7 µM	80.1 µM	3050	7.65	7.25	18.8	17.8	9.92	17.8	14.4	–
CC(C)(C)C1CC[C@H]2c3c([nH]c4ccccc34)[C@H]3C(=O)N(c4ccc(F)cc4)C(=O)[C@H]3[C@H]2C1 (stereo partly specified)	–	46.5	34.7	33.4 µM	26.4 µM	35.9 µM	33.2 µM	–	35.8 µM	–	–	–	–	–	–	–	–	–	–
O=C(/C=C(\[O-])c1ccccc1)CCCCCCC(=O)/C=C(\[O-])c1ccccc1.O=C(/C=C(\[O-])c1ccccc1)CCCCCCC(=O)/C=C(\[O-])c1ccccc1.O=C(/C=C(\[O-])c1ccccc1)CCCCCCC(=O)/C=C(\[O-])c1ccccc1.[Y+3].[Y+3]	> 50 µM	> 50	–	> 50 µM	> 50 µM	> 50 µM	> 50 µM	–	> 50 µM	–	14000	–	13.4	> 50	31.8	> 50	–	> 50	> 50
CC(=O)O[C@H]([C@H](OC(C)=O)[C@H](C)OC(C)=O)[C@@H](/C=C/[C@H]1CC=CC(=O)O1)OC(C)=O	> 100 µM	–	–	> 100 µM	> 100 µM	> 100 µM	> 100 µM	> 100 µM	> 100 µM	> 100 µM	59400	65.5	66.6	59.4	37.2	36.4	73.7	37.6	–
COc1ccc2cc3n(c(=O)c2c1)CCc1c-3cc(OC)c(OC)c1OC	> 100 µM	> 100	> 100	> 100 µM	–	> 100 µM	> 100 µM	> 100 µM	> 100 µM	–	–	–	–	–	–	–	–	–	–
CN(c1ccccc1)c1c2ccccc2nc2[nH]c3ccccc3c12	6.25 µM	–	–	28.7 µM	10.3 µM	4.59 µM	–	> 100 µM	8.82 µM	12.9 µM	985	3.06	6.4	1.16	1.91	7.71	0.336	2.04	–
OCc1ccc(N2CCc3ccc(F)cc3C2)cc1Cl	14.5 µM	–	–	21 µM	0.532 µM	31 µM	8.79 µM	17.3 µM	11.2 µM	48.4 µM	1120	15.8	1.86	0.0872	15.9	0.226	2.9	0.18	–
Cn1cc(-c2ccc3c(c2)ncn3-c2cc(NS(=O)(=O)C3CC3)cc(-c3ccc(F)cc3F)c2)cn1	45.4 µM	–	–	> 100 µM	> 100 µM	12.7 µM	61.5 µM	> 100 µM	> 100 µM	12.6 µM	11900	1.68	20.6	23.4	1.37	25.7	6	39.1	–
CCCCC(C(=O)C(=O)Nc1ccccc1CC)C(=O)C(C)C (stereo unspecified)	> 100 µM	> 100	> 100	> 100 µM	> 100 µM	> 100 µM	> 100 µM	–	> 100 µM	–	–	–	–	–	–	–	–	–	–
Cc1ccc(-c2nc([P+](c3ccccc3)(c3ccccc3)c3ccccc3)c(N3CCOCC3)o2)cc1	0.738 µM	–	–	7.45 µM	10.8 µM	10.1 µM	2.76 µM	5.33 µM	11.8 µM	9.64 µM	246	0.578	0.456	0.468	0.787	0.559	0.418	0.467	–
CCCCCCCCCCCCOC1C(C(COC2OC(C(O)CO)C3OC(C)(C)OC23)OC(=O)Nc2ccccc2)OC2OC(C)(C)OC21 (stereo unspecified)	1.6 µM	–	–	19.6 µM	13.3 µM	22.3 µM	32.4 µM	–	27.2 µM	18.6 µM	484	6.13	7.39	3.88	9.14	16.3	< 0.0212	9.21	–
COc1cc(/C=C/C(=O)c2nc3cc(F)ccc3nc2C)cc(OC)c1OC	–	–	–	> 100 µM	> 100 µM	> 100 µM	> 100 µM	> 100 µM	> 100 µM	> 100 µM	1780	5.34	> 47.9	4.05	> 100	34.5	1.85	5.34	–
CC1=C(C(=O)Nc2ccc3[nH]ncc3c2)C(c2ccc(F)cc2)N=C(c2ccc(C(F)(F)F)nc2)N1 (stereo unspecified)	> 25 µM	–	–	> 25 µM	> 25 µM	> 25 µM	> 25 µM	> 25 µM	> 25 µM	20.2 µM	6670	5.05	12.8	11.8	7.61	9.49	6.43	11.6	–
O=C1c2ccccc2C2(O)N(c3ccccc3)C(=S)N(c3ccccc3)C12O (stereo unspecified)	–	> 100	> 100	> 100 µM	> 100 µM	> 100 µM	> 100 µM	–	> 100 µM	–	–	–	–	–	–	–	–	–	–
CN(C)c1ccc(/C=c2/sc3nc(=O)c(-c4ccccc4NC(=O)C(F)(F)F)nn3c2=O)cc1	–	–	> 100	> 100 µM	> 100 µM	> 100 µM	> 100 µM	> 100 µM	> 100 µM	–	–	–	–	–	–	–	–	–	–
COc1ccc(Cn2c(Br)c3c(c2-c2cc(OC)c(OC)c(OC)c2)CCc2sc(N)nc2-3)cc1	3.67 µM	–	–	> 58.3 µM	10.2 µM	10.5 µM	5.41 µM	5.67 µM	7.65 µM	> 100 µM	465	2.08	2.69	1.89	1.16	0.72	0.41	0.515	–
